Measured values published in US20060263427A1, “Quinine formulations” (priority 2005, published 2006).
Where a name gives a salt, the structure may show the parent alone. Read-outs that look alike come from different tables or passages of the source.

Key:
[1] = Mean plasma quinine concentration over 24 hours after single oral dose of Quinine Sulfate (Example 6, Studies 1 and 2); type: in vivo, human; conditions: for concentration at 0 h / concentration at 2 h / concentration at 4 h / concentration at 6 h / concentration at 12 h / concentration at 24 h: both sexes, human, plasma, oral
[2] = QTc interval measurements (ECG) over 24 hours after single oral dose of Quinine Sulfate (Example 6, Studies 1 and 2); type: in vivo, human
[3] = in vivo
clinical [4] = conditions: human, in vivo
clinical [5] = conditions: human, plasma, oral
[6] = 324 mg, 1 capsule, fasted
[7] = fasted, non-transformed data, least squares mean
[8] = 324 mg, Study 1, B: 324 mg capsule, fed
[9] = 324 mg, Study 2, C: 324 mg capsule, fasting
[10] = 648 mg, Study 2, D: 648 mg (two capsules), fasting
[11] = non-transformed data, least squares mean

C=C[C@H]1C[N@@]2CC[C@H]1C[C@H]2[C@H](O)c1ccnc2ccc(OC)cc12 [Quinine Sulfate, cinchonan-9-ol, 6′-methoxy-, (8α,9R)-, sulfate (2:1)]
Mean Plasma Concentration ([1]; Study 2, C: 324 mg capsule, fasting, 0 hours): 0; ng/ml
concentration at 0 h ([1]; 324 mg, Study 1, B: 324 mg capsule, fed, 0 hours): 0 ng/mL
concentration at 2 h [1, 8]: 835 ng/mL
concentration at 4 h [1, 8]: 2260 ng/mL
concentration at 6 h [1, 8]: 2010 ng/mL
concentration at 12 h [1, 8]: 1220 ng/mL
concentration at 24 h [1, 8]: 543 ng/mL
concentration at 2 h [1, 9]: 1860 ng/mL
concentration at 4 h [1, 9]: 1880 ng/mL
concentration at 6 h [1, 9]: 1710 ng/mL
concentration at 12 h [1, 9]: 994 ng/mL
concentration at 24 h [1, 9]: 475 ng/mL
concentration at 0 h ([1]; 648 mg, Study 2, D: 648 mg (two capsules), fasting, 0 hours): 0 ng/mL
concentration at 2 h [1, 10]: 2810 ng/mL
concentration at 4 h [1, 10]: 2950 ng/mL
concentration at 6 h [1, 10]: 2720 ng/mL
concentration at 12 h [1, 10]: 1700 ng/mL
concentration at 24 h [1, 10]: 912 ng/mL
subjects with significant prolongations in QTc interval (>450 msec) ([2]; 50 subjects, single oral doses 324 mg or 648 mg): seven
relation of mean QTc value to plasma concentration ([2]; single oral doses, Table 1): an increase in the mean QTc value was found to correspond with the peak quinine plasma concentration
AUC0-INF ([3]; human, 648 mg): 61817.27 ng·h/mL
AUC0-t ([3]; human, 648 mg): 56394.65 ng·h/mL
Cmax ([3]; human, 648 mg): 3174.89 ng/mL
dose proportionality of AUCT and AUCinf [3]: proportional increase
dose proportionality of Cmax [3]: nonlinear dose proportionality
Tmax (clinical [4]; 324 mg): 2.78 h
Tmax (clinical [4]; 648 mg): 2.8 h
AUC(0-inf) (clinical [4]; 648 mg, AUC0-INF): 59200 ng·h/mL
AUC0-t (clinical [4]; 648 mg, AUC0-t): 54400 ng·h/mL
Cmax (clinical [4]; 648 mg, Cmax): 3240 ng/mL
Tmax (clinical [5]; 260 mg): 2.61 h
AUC0-t (clinical [5]; 324 mg): 30300 ng·h/mL
AUC(0-inf) (clinical [5]; 324 mg): 32100 ng·h/mL
Cmax (clinical [5]; 324 mg): 2280 ng/mL
Tmax (clinical [5]; 324 mg): 2.75 h
Cmax ([6]; Ln-transformed data, geometric mean): 2242.70 ng/mL
AUC0-INF [6, 11]: 33280.89 ng·h/mL
AUC0-t [6, 11]: 31298.12 ng·h/mL
kelim ([7]; 324 mg, 1 capsule): 0.0592
kelim ([7]; 648 mg, 2 capsules): 0.0572
